Source: patent US20230277534A1 (Plexxikon Inc., priority 2011, published 2023)

Experiments:
[1] = tested on: COLO205 colon adenocarcinoma cells (B-Raf V600E mutation); test: COLO205 cell growth inhibition (ATPlite); type: cell-based; settings: Homo sapiens, COLO 205, 72 h, 3 days
How it was run: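 Cells treated for 3 days at 37 °C, 5% CO2 with an 8-point 1:3 dilution series, top final concentration 10 μM, DMSO control. ATPlite luminescence used as a measure of cell number; IC50 from reading versus concentration.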

B-Raf V600E = B-Raf V600E (Homo sapiens (Human), UniProt P15056, V600E); test: B-Raf V600E kinase biochemical activity assay (AlphaScreen, biotin-MEK1 substrate); settings: 100 μM ATP
Sequence of B-Raf V600E (P15056 whole entry V600E): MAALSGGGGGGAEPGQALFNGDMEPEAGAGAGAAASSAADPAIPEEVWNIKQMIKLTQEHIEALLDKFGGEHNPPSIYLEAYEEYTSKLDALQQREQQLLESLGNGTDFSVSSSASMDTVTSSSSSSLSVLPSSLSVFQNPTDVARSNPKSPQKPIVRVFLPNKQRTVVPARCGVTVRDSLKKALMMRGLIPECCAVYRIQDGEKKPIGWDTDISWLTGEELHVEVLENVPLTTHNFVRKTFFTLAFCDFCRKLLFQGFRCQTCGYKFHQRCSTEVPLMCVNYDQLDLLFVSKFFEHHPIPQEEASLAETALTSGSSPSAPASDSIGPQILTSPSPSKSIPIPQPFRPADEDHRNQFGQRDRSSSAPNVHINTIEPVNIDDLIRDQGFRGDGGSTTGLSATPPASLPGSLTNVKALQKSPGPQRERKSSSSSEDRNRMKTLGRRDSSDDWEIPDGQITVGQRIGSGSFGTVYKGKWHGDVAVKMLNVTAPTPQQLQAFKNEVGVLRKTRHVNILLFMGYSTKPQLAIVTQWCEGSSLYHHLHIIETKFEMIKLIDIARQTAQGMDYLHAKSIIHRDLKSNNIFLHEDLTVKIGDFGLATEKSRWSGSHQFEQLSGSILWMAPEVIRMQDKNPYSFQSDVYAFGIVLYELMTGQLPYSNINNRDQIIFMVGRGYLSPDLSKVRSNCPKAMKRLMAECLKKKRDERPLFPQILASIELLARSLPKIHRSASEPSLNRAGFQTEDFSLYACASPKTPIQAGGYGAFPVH
How it was run: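 IC50 was derived from AlphaScreen signal (anti-phospho-MEK1/2 antibody with streptavidin donor and Protein A acceptor beads, 3 h) across 8 compound concentrations. The kinase step ran 45 min at room temperature: 0.1 ng B-Raf V600E, 100 nM biotin-MEK1, 100 μM final ATP, pH 7.0 HEPES with MgCl2/MnCl2.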

[2] = tested on: A375 melanoma cells (B-Raf V600E mutation); test: A375 (A375_P-ERK) cell activity / cell growth inhibition; type: cell-based; settings: Homo sapiens, A-375
Experimental: Compounds are assessed in a variety of cell based assays.
On day 1, cells are counted, then centrifuged in a conical tube for 5 minutes at 1000 rpm.
On day 2, compound at a maximum concentration of 5 mM is serially diluted 1:3 (e.g. 10 μL with 30 μL dimethyl sulfoxide) for a total of 8 point titration with DMSO as a control. A 1 μL aliquot of each dilution point and control is added to 249 μL growth media and 50 μL is added to a well containing cells, providing 10 μM compound at the maximum concentration point. The cells are incubated for 3 days at 37° C. in 5% CO2.
ATPlite is added 25 μL to each well, shake for 2 minutes, and the cells are incubated at room temperature for 10 minutes, then luminescence is read on Safire reader. The measured luminescence correlates directly with cell number, such that the reading as a function of compound concentration is used to determine the IC50 value.

[3] = tested on: IPC-298 human melanoma cell line that expresses activated NRAS; test: IPC-298_P-ERK cell activation assay (phosphorylated ERK, AlphaScreen); type: cell-based; settings: 1 h, IPC-298 cells, P-ERK activation, compound for one hour
Experimental: B9 is a squamous cell carcinoma cell line expressing activated HRAS that was isolated from a DMBA/TPA-induced mouse model of skin carcinogenesis (Stoler, et al. The Journal of Cell Biology, 1993, 122(5), 1103-17). IPC-298 is a human melanoma cell line that expresses activated NRAS (Aubert, et al. International Journal of Cancer, 1993, 54(5), 784-92). To determine whether compounds induce phosphorylated ERK and MEK, cells are plated in a 96-well dish and treated with an 8-point titration of compound for one hour at 37° C. The media is then removed and the cells are incubated with lysis buffer containing protease and phosphatase inhibitors. Phosphorylated ERK and MEK in the resulting lysates is detected using AlphaScreen™ technology. To detect phosphorylated ERK, cell lysates are incubated with streptavidin-coated donor beads, anti-mouse IgG acceptor beads, a biotinylated anti-ERK1/2 rabbit antibody, and a mouse antibody that recognizes ERK1/2 only when it is phosphorylated on Thr202 and Tyr204. The biotinylated ERK1/2 antibody will bind to both the streptavidin-coated donor beads and to ERK1/2 (regardless of its phosphorylation state), and the phospho-ERK1/2 antibody will bind to the acceptor beads and to ERK1/2 that is phosphorylated at Thr202/Tyr204. Excitation of the beads with laser light at 680 nm produces singlet oxygen, which is rapidly quenched unless the beads are in close proximity. When ERK is phosphorylated, both antibodies can bind the same protein, bringing the donor and acceptor beads into close proximity, producing a signal that can be measured at 580 nm. MEK phosphorylation is detected using a similar approach, only with antibodies directed against total MEK1/2 and MEK1/2 that is phosphorylated at Ser217 and Ser221.

| IC50 [1] [µM] | IC50 (B-Raf V600E) [µM] | IC50 [2] [µM] | EC50 [3] [µM] | SMILES |
| --- | --- | --- | --- | --- |
| > 1 | < 0.1 | > 1 | – | CC(C)N(C)S(=O)(=O)Nc1cccc(C(=O)c2c[nH]c3ncc(-c4cnc(C5CC5)nc4)cc23)c1F [Compound P-0233, 5-(2-cyclopropylpyrimidin-5-yl)-3-[2-fluoro-3-[[isopropyl(methyl)sulfamoyl]amino]benzoyl]-1H-pyrrolo[2,3-b]pyridine] |
| < 1 | < 0.1 | – | > 2 | O=C(c1c(F)ccc(NS(=O)(=O)N2CCCC2)c1F)c1c[nH]c2ncc(-c3ccnc(C4CC4)c3)cc12 [Compound P-0295, N-[3-[5-(2-cyclopropyl-4-pyridyl)-1H-pyrrolo[2,3-b]pyridine-3-carbonyl]-2,4-difluoro-phenyl]pyrrolidine-1-sulfonamide] |
| > 1 | < 0.1 | – | > 2 | CNS(=O)(=O)Nc1ccc(F)c(C(=O)c2c[nH]c3ncc(-c4cnc(C5CC5)nc4)cc23)c1F [Compound P-0334, [5-(2-cyclopropylpyrimidin-5-yl)-1H-pyrrolo[2,3-b]pyridin-3-yl]-[2,6-difluoro-3-(methylsulfamoylamino)phenyl]methanone] |
